Source: PubChem BioAssay (NCI)
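All cell lines were grown in 96-well plates and treated with compound for 48 hours. Definition used: TGI = concentration required for complete inhibition of growth.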

Tests used:
Experiment in all cases: DTP human tumour cell line panel, 48 h
[1] = system: SN12C renal
[2] = system: A498 renal
[3] = system: SF-268 CNS
[4] = system: UACC-62 melanoma
[5] = system: OVCAR-8 ovarian
[6] = system: ACHN renal
[7] = system: SK-MEL-2 melanoma
[8] = system: U251 CNS
[9] = system: OVCAR-4 ovarian
[10] = system: TK-10 renal

Structure (SMILES) | TGI [1] | TGI [2] | TGI [3] | TGI [4] | TGI [5] | TGI [6] | TGI [7] | TGI [8] | TGI [9] | TGI [10]
O=c1cc(-c2ccc(Oc3ccccc3)cc2)[nH]c2cc3c(cc12)OCO3 | > 100 µM | > 100 µM | > 100 µM | > 100 µM | > 100 µM | > 100 µM | > 100 µM | > 100 µM | > 100 µM | > 100 µM
Cc1ccc(S(=O)(=O)N/N=C2/CCCOC2)cc1 | > 100 µM | > 100 µM | > 100 µM | > 100 µM | > 100 µM | > 100 µM | > 100 µM | > 100 µM | > 100 µM | > 100 µM
Cc1ccc2c3c1O[C@H]1c4[nH]c5ccccc5c4C[C@@]4(O)[C@@H](C2)N(CC2CC2)CC[C@]314 | 29.1 µM | 31.8 µM | 30.1 µM | 30.1 µM | 34.3 µM | 30.9 µM | 31.6 µM | 28.2 µM | 17.8 µM | 31.7 µM
COC(=O)Nc1nc2ccc(S(=O)(=O)SC)cc2[nH]1 | 37.1 µM | 99.7 µM | > 100 µM | 22.5 µM | 30.6 µM | 23.9 µM | 26.9 µM | 29.9 µM | 84.5 µM | 22.1 µM
C[C@@H](c1ccccc1)n1c(N)c(C#N)c2ccc([N+](=O)[O-])cc2c1=O | 28.4 µM | 24.4 µM | > 100 µM | 30.4 µM | 30.6 µM | 29.5 µM | > 100 µM | 59.1 µM | 35.7 µM | 24 µM
Nc1nc([O-])c2c(n1)[n+](C1OC(CO)C(O)C1O)cn2CCO (stereo not given) | > 100 µM | > 100 µM | > 100 µM | > 100 µM | > 100 µM | > 100 µM | > 100 µM | > 100 µM | > 100 µM | > 100 µM
O=[N+]([O-])c1ccc(S(=O)(=O)n2c3ccc(Br)cc3c3nc4ccccc4nc32)cc1 | > 100 µM | > 100 µM | > 100 µM | > 100 µM | > 100 µM | > 100 µM | > 100 µM | > 100 µM | > 100 µM | > 100 µM
CCOC(=O)CC(C)C1(C(=O)OCC)CCCCC1=O (stereo not given) | > 100 µM | > 100 µM | > 100 µM | > 100 µM | > 100 µM | > 100 µM | > 100 µM | > 100 µM | > 100 µM | > 100 µM
NNC(=S)N/N=C(/C(=O)Nc1ccc(Cl)c(Cl)c1)C(C1OC(=O)c2ccccc21)[N+](=O)[O-] (stereo not given) | > 100 µM | > 100 µM | > 100 µM | > 100 µM | > 100 µM | > 100 µM | > 100 µM | > 100 µM | > 100 µM | > 100 µM
COC1=C(OC)C(=O)C(Cc2c(C)nc3sccn23)=C(C)C1=O | 31 µM | 38.3 µM | 37.3 µM | 23.5 µM | 33.6 µM | 30.1 µM | 41.5 µM | 33.1 µM | 18.1 µM | 32 µM
C=C(C)[C@H]1Cc2c(ccc3c2O[C@@H]2COc4cc(OC)c(OC)cc4[C@@H]2C3=O)O1 | 67.5 µM | 63.3 µM | 28.2 µM | 44.7 µM | 10.1 µM | 87 µM | 25.3 µM | 30.9 µM | 68.5 µM | 54.5 µM
CC(C)=CCC(O)[C@](C)(O)[C@H]1[C@H](O)C[C@@]2(C)[C@@H]3CCc4cc(O)c(OC5OC(CO)C(O)C(O)C5O)cc4C3(C)C(=O)C[C@]12C (stereo not given in full) | > 100 µM | > 100 µM | > 100 µM | > 100 µM | > 100 µM | > 100 µM | > 100 µM | > 100 µM | > 100 µM | > 100 µM
Cc1ccc([N+](=O)[O-])c2c(NCCC[N+](C)(C)[O-])c3ccccc3nc12 | 8.74 µM | 4.84 µM | 24.9 µM | 3.4 µM | 49.1 µM | 47.7 µM | 2.25 µM | 7.32 µM | 21.2 µM | 80.5 µM
CCN(CC)CCSc1c2cc(OC)ccc2nc2ccc(OC)cc12 | 9.75 µM | 51.5 µM | 12.7 µM | 33.5 µM | 35.3 µM | 3.12 µM | 44.6 µM | > 53.1 µM | 16.9 µM | 22.1 µM
CCN1CCN(c2nc3ccccc3c3c2CCOc2ccccc2-3)CC1 | > 84 µM | > 57.4 µM | > 100 µM | 34.7 µM | > 75.5 µM | > 100 µM | > 67.4 µM | > 79.2 µM | > 100 µM | > 56.9 µM
O=C1NC2O[C@H](CNC(=O)c3cc(Br)c[nH]3)CC2(O)N1 (mixture of isomers) | > 100 µM | > 100 µM | > 100 µM | > 100 µM | > 100 µM | > 100 µM | > 100 µM | > 100 µM | > 100 µM | > 100 µM
O=C1c2ccsc2C(=O)c2sc(CO)cc21 | 0.0818 µM | 0.792 µM | 2.31 µM | 0.122 µM | 0.38 µM | 0.238 µM | 0.232 µM | 0.421 µM | 0.31 µM | 10.1 µM
COc1cc(Br)cc2cc(-c3cn4c(n3)sc3ccccc34)c(=O)oc12 | > 75 µM | 51 µM | > 75 µM | > 75 µM | > 75 µM | > 75 µM | 70.6 µM | 72.1 µM | > 75 µM | > 75 µM
